# From patent US7754440B2 (priority 2001, dated 2010)
# “Also recorded” adds a separate entry of the source.
# Key:
# Type in all cases: cell-based
# Nav1.3 sodium channel [1] = target: T1, Nav1.3 sodium channel (Homo sapiens, UniProt Q9NY46); assay: cell-based; conditions: for IC50: read-out: IC50 obtained using patch-clamp
# Nav1.3 sodium channel [2] = target: T1, Nav1.3 sodium channel; assay: Na+ depletion/repletion persistent current assay with single-wavelength membrane potential dye on FLIPR-Tetra
# HEK-Nav 1.3 cells = assay: Counter-screen: K+-dependent depolarization (VIPR FRET); conditions: tetracaine 10 μM; K+ final 80 mM; FIG. 10
# Nav1.3 sodium channel [3] = target: T1, Nav1.3 sodium channel; assay: Persistent sodium current screening assay using FRET dyes on VIPR (Na+-dependent depolarization); conditions: tetracaine 10 μM; HEK-Nav 1.3 cells; FIG. 10
# T1 sequence (Q9NY46 whole entry): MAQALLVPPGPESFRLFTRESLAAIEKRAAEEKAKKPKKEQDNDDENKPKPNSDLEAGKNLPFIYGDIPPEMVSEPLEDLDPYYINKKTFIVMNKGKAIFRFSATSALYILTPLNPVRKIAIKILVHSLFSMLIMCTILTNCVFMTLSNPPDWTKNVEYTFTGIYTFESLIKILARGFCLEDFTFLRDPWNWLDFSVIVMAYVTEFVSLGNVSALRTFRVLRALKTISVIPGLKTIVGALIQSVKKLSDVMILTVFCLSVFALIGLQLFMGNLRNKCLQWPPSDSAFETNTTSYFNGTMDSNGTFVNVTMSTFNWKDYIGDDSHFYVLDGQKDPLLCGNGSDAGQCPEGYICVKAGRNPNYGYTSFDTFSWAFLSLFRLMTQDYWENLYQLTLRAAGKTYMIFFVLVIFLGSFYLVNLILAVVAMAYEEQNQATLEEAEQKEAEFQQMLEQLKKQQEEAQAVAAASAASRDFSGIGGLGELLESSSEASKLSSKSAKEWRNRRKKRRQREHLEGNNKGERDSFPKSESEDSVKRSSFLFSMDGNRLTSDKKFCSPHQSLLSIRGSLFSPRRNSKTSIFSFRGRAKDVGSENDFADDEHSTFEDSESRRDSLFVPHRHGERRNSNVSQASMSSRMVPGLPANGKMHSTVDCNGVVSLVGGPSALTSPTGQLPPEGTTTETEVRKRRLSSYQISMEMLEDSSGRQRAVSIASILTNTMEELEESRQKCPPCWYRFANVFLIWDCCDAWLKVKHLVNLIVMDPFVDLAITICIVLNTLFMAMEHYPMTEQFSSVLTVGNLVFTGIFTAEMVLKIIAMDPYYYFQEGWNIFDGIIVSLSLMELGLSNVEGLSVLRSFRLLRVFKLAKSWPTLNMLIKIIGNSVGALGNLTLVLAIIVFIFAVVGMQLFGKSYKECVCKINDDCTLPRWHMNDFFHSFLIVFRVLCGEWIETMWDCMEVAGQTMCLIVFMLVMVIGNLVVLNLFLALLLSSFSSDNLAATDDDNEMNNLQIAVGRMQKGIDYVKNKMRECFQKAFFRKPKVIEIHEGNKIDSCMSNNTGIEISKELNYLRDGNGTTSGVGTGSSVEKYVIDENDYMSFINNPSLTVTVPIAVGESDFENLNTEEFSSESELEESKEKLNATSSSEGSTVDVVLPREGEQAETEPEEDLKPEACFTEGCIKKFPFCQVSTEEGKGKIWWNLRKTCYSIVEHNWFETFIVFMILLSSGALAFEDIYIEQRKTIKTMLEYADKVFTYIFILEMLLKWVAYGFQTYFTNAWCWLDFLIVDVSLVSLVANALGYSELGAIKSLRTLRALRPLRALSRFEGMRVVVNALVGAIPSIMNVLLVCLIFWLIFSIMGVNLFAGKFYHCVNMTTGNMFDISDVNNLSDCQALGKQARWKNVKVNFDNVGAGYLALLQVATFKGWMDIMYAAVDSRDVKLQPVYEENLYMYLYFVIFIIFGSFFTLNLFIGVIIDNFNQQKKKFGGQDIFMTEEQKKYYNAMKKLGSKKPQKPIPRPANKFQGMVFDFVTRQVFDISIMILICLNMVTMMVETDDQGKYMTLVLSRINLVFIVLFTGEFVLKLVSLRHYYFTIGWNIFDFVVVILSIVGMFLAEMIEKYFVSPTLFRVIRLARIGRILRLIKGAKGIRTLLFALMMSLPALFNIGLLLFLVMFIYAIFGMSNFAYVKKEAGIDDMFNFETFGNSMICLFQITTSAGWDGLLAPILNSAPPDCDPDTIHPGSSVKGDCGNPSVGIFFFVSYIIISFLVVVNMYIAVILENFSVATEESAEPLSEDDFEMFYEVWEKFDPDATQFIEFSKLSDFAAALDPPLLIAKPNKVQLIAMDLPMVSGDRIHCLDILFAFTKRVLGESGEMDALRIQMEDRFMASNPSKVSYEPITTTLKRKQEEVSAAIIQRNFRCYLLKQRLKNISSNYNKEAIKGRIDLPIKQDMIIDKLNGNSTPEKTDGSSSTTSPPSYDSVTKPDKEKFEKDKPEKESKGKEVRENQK
compound,measurement,setting,value
TTX,Block of persistent current,Nav1.3 sodium channel [1],completely blocked
same,Block of transient current,Nav1.3 sodium channel [1],completely blocked
same,IC50,Nav1.3 sodium channel [1],0.005 µM
same,Na+ channel dependent component of the fluorescence response,Nav1.3 sodium channel [2],blocked; also recorded: the initial response is lost
same,IC50,"Nav1.3 sodium channel [2]; read-out: IC50 persistent sodium current, FLIPR-Tetra assay",0.005 µM
CCCCNc1ccc(C(=O)OCCN(C)C)cc1 [Tetracaine],K+-dependent change in Rf/Ri (K+-dependent depolarization),HEK-Nav 1.3 cells,not
same,Na+-dependent change in Rf/Ri (Na+-dependent depolarization),Nav1.3 sodium channel [3],inhibited
CCN(CC)CC(=O)Nc1c(C)cccc1C [Lidocaine],IC50,Nav1.3 sodium channel [1]; comparison values for the persistent current assay,90 µM
same,IC50,Nav1.3 sodium channel [2],32 µM
